Data reported in publication PMC4376724, “Differential Phenotypic and Functional Profiles of TcCA-2 -Specific Cytotoxic CD8^+ T Cells in the Asymptomatic versus Cardiac Phase in Chagasic Patients” (PLoS ONE, 2015).

Test system: PBMC from HLA-A*02:01 Chagas disease patients and healthy donors
Assay: Cytokine secretion test (Bio-Plex multiplex immunoassay) in PBMC supernatants
Assay type: cell-based, human
Conditions: 1 μM peptide, 30 h; for IFNγ / IL6 / TNFα: non-peptide control subtracted
Description: For the screening of the recognition of TcCA-2 epitopes by Chagas disease patients, 10 HLA-A*02:01 adult patients in the asymptomatic phase of the disease (IND) were enrolled. For cytotoxicity, functional activity determinations and phenotypic characterization another group of 19 HLA-A*02:01 adults Chagas disease patients and 9 healthy donors were analyzed. These patients were at the chronic stage of the disease and were considered to be at the asymptomatic phase (IND, n = 8) if there was no evidence of having cardiac or gastrointestinal disorders. Chronic Chagas cardiomyopathy patients (CCC, n = 11) were stratified into G1 to G3 stages following Kuschnir classification according to clinical criteria and radiological, electrocardiographic and echocardiography analyses. The number of patients was the one recommended by the Hospital Ethical Committee. […] The patients were enrolled in both studies (functional and phenotypic characterization, IND n = 6 and CCC n = 7) when the available number of purified PBMC (limited by the cellular number isolated from each subject) was enough for both analyses. Another four CCC patients had to be enrolled to perform the phenotypic analysis in order to reach statistical significance.
Cytokine secretion (IL-4, IL-10, IL-6, IFN-γ, TNF-α) was determined in the supernatants of PBMC from Chagas disease patients and healthy donors, after in vitro stimulation with 1 μM of each peptide for 30 h at 37°C in RPMI supplemented with 10% iFBS as explained before. The secretion profile was determined by using a bead-based multiplex immunoassay system (Bio-Plex, Bio-Rad), following the manufacturer's instructions. The response was considered positive if an increase in the secretion of cytokines was at least three folds higher than the secretion by un-stimulated cells (basal secretion level) and at least, 4 pg/mL for IL-4, 2 pg/mL for IL-10, 15 pg/mL for IL-6 and 5 pg/mL for IFN-γ and TNF-α. The positive control consisted of 50 ng/mL Phorbol 12 myristate 13-acetate (PMA) and 500 ng/mL ionomycin (Sigma). Cytokine levels were quantified in each sample by using the Bio-Plex Manager software 4.1 (Bio-Rad).
Functional analysis of the epitope-specific CD8^+ T cells was carried out by the determination of the secretion profile of IFN-γ, TNF-α, IL-4, IL10 and IL-6 cytokines. […] CD8^+ T cells from 2 out of 11 patients responded to stimulation with peptide TcCA-2_273-281 by secreting IL-6. […] There was no secretion of IL-4 and IL-10 in PBMC after stimulation with any one of the four TcCA-2 peptides (data not shown). IFN-γ, TNF-α and IL6 cytokines secretion levels were higher in patients at the asymptomatic phase of the disease than in Chagas patients with associated cardiomyopathy.

## ALQVTNHRYL [TcCA-2_657-666]
PBMC of patient CCC I 770
  IFNγ: 0 pg/mL
  IL6: 1 pg/mL
  TNFα: -6 pg/mL
PBMC of patient CCC I 861
  IFNγ: 0 pg/mL
  IL6: -4 pg/mL
  TNFα: -2 pg/mL
PBMC of patient CCC I 884
  IFNγ: 0 pg/mL
  IL6: 0 pg/mL
  TNFα: 0 pg/mL
PBMC of patient CCC III 509
  IFNγ: 0 pg/mL
  IL6: -4 pg/mL
  TNFα: -5 pg/mL
PBMC of patient IND 365
  IFNγ: 2 pg/mL
  IL6: 10 pg/mL
  TNFα: 14 pg/mL
PBMC of patient IND 388
  IFNγ: 2 pg/mL
  IL6: 2 pg/mL
  TNFα: -5 pg/mL
PBMC of patient IND 510
  IFNγ: 0 pg/mL
  IL6: -3 pg/mL
  TNFα: 1 pg/mL
PBMC of patient IND 535
  IFNγ: 0 pg/mL
  IL6: -5 pg/mL
  TNFα: -2 pg/mL
PBMC of patient IND 571
  IFNγ: 1 pg/mL
  IL6: 0 pg/mL
  TNFα: 0 pg/mL
PBMC of patient IND 917
  IFNγ: -1 pg/mL
  IL6: -17 pg/mL
  TNFα: -17 pg/mL
PBMC of subject HD 001
  IFNγ: -2 pg/mL
  IL6: 1 pg/mL
  TNFα: -6 pg/mL
PBMC of subject HD 004
  IFNγ: 4 pg/mL
  IL6: -12 pg/mL
  TNFα: -1 pg/mL
PBMC of subject HD 005
  IFNγ: 0 pg/mL
  IL6: -58 pg/mL
  TNFα: -4 pg/mL
PBMC of subject HD 006
  IFNγ: 3 pg/mL
  IL6: -5 pg/mL
  TNFα: 1 pg/mL
PBMC of subject HD 008
  IFNγ: -3 pg/mL
  IL6: 3 pg/mL
  TNFα: -21 pg/mL
PBMC of subject HD 011
  IFNγ: 0 pg/mL
  IL6: -4 pg/mL
  TNFα: 0 pg/mL
PBMC of subject HD 017
  IFNγ: 0 pg/mL
  IL6: 0 pg/mL
  TNFα: 0 pg/mL
PBMC of subject HD 340
  IFNγ: 1 pg/mL
  IL6: 22 pg/mL
  TNFα: 8 pg/mL
PBMC of subject HD 664
  IFNγ: -3 pg/mL
  IL6: 0 pg/mL
  TNFα: 0 pg/mL

## ALRNLRVFL [TcCA-2_607-615]
PBMC of Chagas patients, positive = at least three folds non-peptide control and ≥15 pg/mL IL-6, ≥5 pg/mL IFN-γ and TNF-α
  Patients whose cells recognized the peptide by secreting IFN-γ, TNF-α and IL-6: 2 out of the 14
PBMC of patient CCC I 456
  IFNγ: 3 pg/mL
  IL6: 18 pg/mL
  TNFα: 12 pg/mL
PBMC of patient CCC I 770
  IFNγ: 0 pg/mL
  IL6: 49 pg/mL
  TNFα: 16 pg/mL
PBMC of patient CCC I 861
  IFNγ: 0 pg/mL
  IL6: -7 pg/mL
  TNFα: -3 pg/mL
PBMC of patient CCC I 884
  IFNγ: 0 pg/mL
  IL6: 0 pg/mL
  TNFα: 0 pg/mL
PBMC of patient CCC II 142
  IFNγ: 0 pg/mL
  IL6: -4 pg/mL
  TNFα: -15 pg/mL
PBMC of patient CCC III 509
  IFNγ: 0 pg/mL
  IL6: -5 pg/mL
  TNFα: -4 pg/mL
PBMC of patient CCC III 797
  IFNγ: -5 pg/mL
  IL6: 9 pg/mL
  TNFα: 3 pg/mL
PBMC of patient IND 265
  IFNγ: 81 pg/mL
  IL6: 1127 pg/mL
  TNFα: 83 pg/mL
PBMC of patient IND 283
  IFNγ: 15 pg/mL
  IL6: 55 pg/mL
  TNFα: 26 pg/mL
PBMC of patient IND 365
  IFNγ: 5 pg/mL
  IL6: 23 pg/mL
  TNFα: 23 pg/mL
PBMC of patient IND 388
  IFNγ: 1 pg/mL
  IL6: 32 pg/mL
  TNFα: -11 pg/mL
PBMC of patient IND 510
  IFNγ: 0 pg/mL
  IL6: -1 pg/mL
  TNFα: 2 pg/mL
PBMC of patient IND 535
  IFNγ: 0 pg/mL
  IL6: -5 pg/mL
  TNFα: -1 pg/mL
PBMC of patient IND 917
  IFNγ: 1 pg/mL
  IL6: -2 pg/mL
  TNFα: -3 pg/mL
PBMC of subject HD 001
  IFNγ: 1 pg/mL
  IL6: -6 pg/mL
  TNFα: -14 pg/mL
PBMC of subject HD 004
  IFNγ: 0 pg/mL
  IL6: -5 pg/mL
  TNFα: 0 pg/mL
PBMC of subject HD 005
  IFNγ: -21 pg/mL
  IL6: -77 pg/mL
  TNFα: -2 pg/mL
PBMC of subject HD 006
  IFNγ: 13 pg/mL
  IL6: 69 pg/mL
  TNFα: 5 pg/mL
PBMC of subject HD 008
  IFNγ: 3 pg/mL
  IL6: 22 pg/mL
  TNFα: 0 pg/mL
PBMC of subject HD 011
  IFNγ: 0 pg/mL
  IL6: -12 pg/mL
  TNFα: -8 pg/mL
PBMC of subject HD 340
  IFNγ: 0 pg/mL
  IL6: 6 pg/mL
  TNFα: 0 pg/mL
PBMC of subject HD 664
  IFNγ: -3 pg/mL
  IL6: 0 pg/mL
  TNFα: 0 pg/mL
